# Experiments:
# [1] = In vivo toxicity in healthy C57 mice
# Protocol: The 30 normal C57 mice (20–25 g) were randomly divided into a normal saline group, TP (0.4 mg/kg) group and TP-CSO group (equivalent TP of 0.2, 0.4 and 0.6 mg/kg), respectively. The drugs were administered by a gavage once every two days for seven times. The body weight and fatality rate were recorded daily. On the 14th day, blood was collected from the eyes, and the organs were harvested after the mice were euthanized. A Beckman CX5 automated analyzer detected renal function indexes, liver function indexes (serum alanine aminotransferase (ALT), aspartic aminotransferase (AST)), and (blood urea nitrogen (BUN) creatinine (CRE)).
# Panco2 tumor = assay: In vivo antitumor study in Panco2 tumor-bearing mice
# Protocol: The antitumor activity of the TP-CSO conjugate was evaluated on Panco2 tumor-bearing mice. First, C57 mice (20–25 g) were implanted subcutaneously with 2 × 10^6 Panco2 cells. When the tumor grew up to about 100 mm^3, the mice were orally administrated with 0.4 mg/kg TP and TP-CSO (0.2, 0.4 and 0.6 mg TP equivalent/kg) once every two days, respectively. The body weight and fatality rate were recorded. Mice in control groups were orally administrated with saline solution. The tumor volume was measured with calipers and calculated by the (1/2) (a × b²) formula (a is long diameter, b is short diameter). After 14 days of intragastric administration, the mice were sacrificed, and livers, kidney, and tumors were harvested.
# [2] = Pharmacokinetics after gavage administration to rats (plasma level of free TP by LC-MS); parameters: species or system SD rats; conditions: Sprague-Dawley, rat, in vivo, po, 0.4 mg/kg
# Protocol: To evaluate the in vivo pharmacokinetics of TP-CSO conjugate, the SD rats (250–300 g, Sprague-Dawley rat) fasted 12 h in advance and were randomized into two groups (n = 5) and respectively treated with TP (0.4 mg/kg) and TP-CSO (0.4 mg/kg, TP equivalent). The blood samples (500 µL) were collected through the ocular chorionic vein at 5, 15, 30, 60, 120, 180, 240, 360, 480 and 720 min after intragastric administration. Subsequently, the samples were immediately centrifuged at 3500 rpm for 15 min. An upper plasma sample was collected and kept at −80 °C.
# Sample processing: to the plasma sample,10 µL of ferulic acid (2.5 ng/mL) was added as internal standard. The sample (100 µL) was placed in a 1.5 mL Eppendorf tube, to which 800 µL of ethyl acetate was added and vortexed for 3 min, and this was centrifuged at 12,000 rpm for 15 min. The upper solution was taken and blow dried with nitrogen at room temperature. The dried residue was dissolved in 100 µL of methanol-water (60:40, v/v) solution, vortexed for 3 min, subsequently centrifuged at 12,000 rpm for 15 min at 4 °C and the upper solution was collected into a 2 mL vial.
# 10 μL of sample was injected into a Watets C-18 column (2.1 mm × 50 mm, 1.8 µm) on a Sciex X500R QTOF Mass Spectrometer (UPLC-MS; Framingham, MA, USA). The column was eluted with methanol (A)/water (B) solution at a flow rate of 0.3 mL/min and a column temperature of 35 °C (0–6 min, A: 40%–90%; 6–8.1 min, A: 90%; 8.1–10 min, A: 40%). The operating conditions of UPLC-MS are as follows: electrospray ionization source (ESI), negative ionization mode; Ion spray voltage (ISV), 3500 V; Drying temperature, 325 °C; Flow rate of desolvent gas, 8.0 L/min; Atomization temperature, 350 °C. The pyrolysis energy and impact energy of TP were 120 V and 10 V, respectively, and those of ferulic acid were 90 V and 10 V, respectively. A multiple reaction monitoring mode (MRM) was used to monitor the transformation of TP from m/z [M-H] 359.1→241.1 and ferulic acid m/z [M-H] 193.1→134.1 to productions.
# [3] = healthy C57 mice, day 14, 0.4 mg/kg TP equivalent (medium dose)
smiles,measurement,setting,value
"CC(C)[C@]12O[C@H]1[C@@H]1O[C@]13[C@]1(O[C@H]1C[C@H]1C4=C(CC[C@@]13C)C(=O)OC4)[C@@H]2O [TP, Triptolide]",BUN and CRE levels,[1]; [3],significantly lower than in the control group
same,serum ALT and AST levels,[1]; [3],obviously higher than those in other groups
same,body weight vs control group,"[1]; healthy C57 mice, gavage once every two days x7, 0.4 mg/kg TP equivalent (medium dose)",obvious body weight loss but without lethality
same,minimum dose causing the death of mice,"[1]; mice, preliminary experiments",about 0.6 mg/kg
same,tumor-inhibition rate (TIR),"Panco2 tumor; Panco2-bearing mice, oral once every two days, end of study, 0.4 mg TP equivalent/kg (medium dose)",43.39%
same,body weight vs control group,"Panco2 tumor; mouse, in vivo, po, 0.4 mg/kg",obvious decrease in body weight
same,AUC(0-inf),[2],0.061 ng·h/mL
same,Cmax,[2],0.021 ng/mL
same,Tmax,[2],15 min
same,half-life,[2],42.6 min
